Measured values from patent publication US5482967A, “Condensed heterocyclic compounds, their production and use” (Takeda Chemical Industries, Ltd., priority 1992, dated 1996).
pIC50: −log10 of the molar value. Structures can show the parent of a compound that is named as a salt.

biological target: substance P receptor (Homo sapiens, UniProt P25103); assay: Radioligand receptor binding inhibitory assay using receptor from human lymphoblast cells (IM-9), 125I-BHSP; conditions: IM-9 receptor, 25° C., 30 minutes
Sequence (P25103 whole entry): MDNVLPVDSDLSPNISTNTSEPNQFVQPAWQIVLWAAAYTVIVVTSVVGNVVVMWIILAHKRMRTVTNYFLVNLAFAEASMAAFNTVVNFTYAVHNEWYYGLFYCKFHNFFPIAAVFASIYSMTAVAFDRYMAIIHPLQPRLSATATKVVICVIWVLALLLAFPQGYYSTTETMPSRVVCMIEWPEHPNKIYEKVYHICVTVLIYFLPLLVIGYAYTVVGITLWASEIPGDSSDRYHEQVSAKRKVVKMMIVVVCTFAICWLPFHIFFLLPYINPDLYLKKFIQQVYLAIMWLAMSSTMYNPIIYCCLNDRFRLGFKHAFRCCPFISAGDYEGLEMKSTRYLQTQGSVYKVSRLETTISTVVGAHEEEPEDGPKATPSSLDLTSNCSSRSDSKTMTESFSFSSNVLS
Description: The method of A. Margaret et al. [Molecular Pharmacology 42, 458 (1992)] was modified and used. The receptor was prepared from human lymphoblast cells (IM-9). IM-9 cells were grown in 175 cm^2 tissue culture flasks (100 ml×10) at a density approximately 2×10^5 /ml of RPMI 1640 with L-glutamine, 10% (V/V) heat inactivated fetal calf serum, penicillin (100 u/ml), and streptomycin (100 μg/ml) at 37° C. in 5% CO2 /95% air for 3 days. IM-9 cells were obtained by centrifugation at 500×g for 5 minutes at 5° C. The pellet obtained was washed once with phosphate buffer (Flow Laboratories, CAT No. 28-103-05), homogenized using Polytron homogenizer (Kinematika, Germany) in 30 ml of 50 mM Tris-HCl buffer containing 120 mM NaCl, 5 mM KCl, 2 μg/ml phenylmethyl sulfonyl fluoride, and 1 mM ethylenediamine tetra-acetic acid and then centrifuged at 40,000×g for 20 minutes. The residue was washed twice with 30 ml of buffer described above, and preserved frozen (-80° C.).
The above specimen was suspended in a reaction buffer (50 mM Tris-HCl buffer (pH 7.4), 0.02% bovine serum albumin, 1 mM phenylmethylsulfonyl fluoride, 2 μg/ml chymostatin, 40 μg/ml bacitracin, 3 mM manganese chloride) at a protein concentration of 1.5 mg/ml and a 100 μl portion of the suspension was used in the reaction. After addition of the sample and 125I-BHSP (0.46 KBq), the reaction was conducted in 0.2 ml of reaction buffer at 25° C. for 30 minutes. The amount of nonspecific binding was determined by adding substance P at a final concentration of 2×10^-6 M. After the reaction, using a cell harvester (290PHD, Cambridge Technology, Inc., England), rapid filtration was carried out through a glass filter (GF/B, Whatman, U.S.A.) to stop the reaction. After washing three times with 250 μl of 50 mM Tris-HCl buffer (pH 7.4) containing 0.02% bovine serum albumin, the radioactivity remaining on the filter was measured with a gamma counter. Before use, the filter was immersed in 0.1% polyethyleneimine for 24 hours and air-dried.

| SMILES | pIC50 |
| --- | --- |
| CN(Cc1cc(C(F)(F)F)cc(C(F)(F)F)c1)C(=O)c1c(-c2ccccc2)c2ccccc2n(C)c1=O [Example 260, N-[3,5-Bis(trifluoromethyl)benzyl]-1,2-dihydro-N,1-dimethyl-2-oxo-4-phenyl-3-quinolinecarboxamide] | 9.00 |
| Cn1c(C(=O)NCc2cc(C(F)(F)F)cc(C(F)(F)F)c2)c(-c2ccccc2)c2ccccc2c1=O [Example 156, N-[3,5-Bis(trifluoromethyl)benzyl]-1,2-dihydro-2-methyl-1-oxo-4-phenyl-3-isoquinolinecarboxamide] | 8.21 |
| CNc1nc2ccccc2c(-c2ccccc2)c1C(=O)N(C)Cc1cc(C(F)(F)F)cc(C(F)(F)F)c1 [Example 271, N-[3,5-Bis(trifluoromethyl)benzyl]-N-methyl-2-methylamino-4-phenyl-3-quinolinecarboxamide] | 8.72 |
| CN(Cc1cc(C(F)(F)F)cc(C(F)(F)F)c1)C(=O)c1c(-c2ccccc2C(F)(F)F)c2ccccc2oc1=O [Example 256, N-[3,5-Bis(trifluoromethyl)benzyl]-N-methyl-2-oxo-4-(2trifluoromethylphenyl)-2H-1-benzopyran-3-carboxamide] | 8.36 |
| CN(Cc1cc(C(F)(F)F)cc(C(F)(F)F)c1)C(=O)c1[nH]c(=O)c2ccccc2c1-c1ccccc1 [Example 172, N-[3,5-Bis(trifluoromethyl)benzyl]-1,2-dihydro-N-methyl-1-oxo-4-phenyl-3-isoquinolinecarboxamide] | 9.30 |
| Cn1c(C(=O)NCc2cc(C(F)(F)F)cc(C(F)(F)F)c2)c(-c2ccccc2)c2cc(Cl)ccc2c1=O [Example 173, N-[3,5-Bis(trifluoromethyl)benzyl]-6-chloro-1,2-dihydro-2-methyl-1-oxo-4-phenyl-3-isoquinolinecarboxamide] | 7.62 |
| Cc1ccc2c(c1)c(-c1ccccc1Cl)c(C(=O)N(C)Cc1cc(C(F)(F)F)cc(C(F)(F)F)c1)c(=O)n2C [Example 263, N-[3,5-Bis(trifluoromethyl)benzyl]-4-(2-chlorophenyl)-1,2-dihydro-N,1,6-trimethyl-2-oxo-3-quinolinecarboxamide] | 7.34 |
| CN(Cc1cc(C(F)(F)F)cc(C(F)(F)F)c1)C(=O)c1oc(=O)c2ccccc2c1-c1ccc(F)cc1 [Example 246, N-[3,5-Bis(trifluoromethyl)benzyl]-4-(4-fluorophenyl)-N-methyl-1-oxo-1H-2-benzopyran-3-carboxamide] | 9.21 |
| CN(Cc1cc(C(F)(F)F)cc(C(F)(F)F)c1)C(=O)c1nc(Cl)c2ccccc2c1-c1ccccc1 [Example 275, N-[3,5-Bis(trifluoromethyl)benzyl]-1-chloro-N-methyl-4-phenyl-3-isoquinolinecarboxamide] | 8.72 |
| Cc1ccccc1-c1c(C(=O)NCc2cc(C(F)(F)F)cc(C(F)(F)F)c2)n(C)c(=O)c2ccccc12 [Example 101, N-[3,5-Bis(trifluoromethyl)benzyl]-1,2-dihydro-2-methyl-4-(2-methylphenyl)-1-oxo-3-isoquinolinecarboxamide] | 8.60 |
| COc1ccccc1-c1c(C(=O)N(C)Cc2cc(C(F)(F)F)cc(C(F)(F)F)c2)c(=O)oc2ccccc12 [Example 255, N-[3,5-Bis(trifluoromethyl)benzyl]-4-(2-methoxyphenyl)-N-methyl-2-oxo-2H-1-benzopyran-3-carboxamide] | 8.89 |
| Cc1cc(F)ccc1-c1c(C(=O)N(C)Cc2cc(C(F)(F)F)cc(C(F)(F)F)c2)n(C)c(=O)c2ccccc12 [Example 176, N-[3,5-Bis(trifluoromethyl)benzyl]-4-(4-fluoro-2-methylphenyl)-1,2-dihydro-N,2-dimethyl-1-oxo-3-isoquinolinecarboxamide] | 9.15 |
| COc1cc(CNCc2c(-c3ccccc3)c3ccccc3c(=O)n2C)cc(OC)c1OC [Example 205, 1,2-Dihydro-2-methyl-1-oxo-4-phenyl-N-(3,4,5-trimethoxybenzyl)-3-isoquinolinemethylamine] | 7.66 |
| Cn1c(COCc2cc(C(F)(F)F)cc(C(F)(F)F)c2)c(-c2ccccc2)c2ccccc2c1=O [Example 211, 3,5-Bis(trifluoromethyl)benzyl 1,2-dihydro-2-methyl-1-oxo-4-phenyl-3-isoquinolinemethyl ether] | 7.64 |
| CSc1nc2ccccc2c(-c2ccccc2)c1C(=O)N(C)Cc1cc(C(F)(F)F)cc(C(F)(F)F)c1 [Example 272, N-[3,5-Bis(trifluoromethyl)benzyl]-N-methyl-2-methylthio-4-phenyl-3-quinolinecarboxamide] | 7.64 |

Next, values leading:

| pIC50 | SMILES |
| --- | --- |
| 8.85 | CN(Cc1cc(C(F)(F)F)cc(C(F)(F)F)c1)C(=O)c1c(Cl)nc2ccccc2c1-c1ccccc1 [Example 269, N-[3,5-Bis(trifluoromethyl)benzyl]-2-chloro-N-methyl-4-phenyl-3-quinolinecarboxamide] |
| 7.89 | CN(Cc1cc(C(F)(F)F)cc(C(F)(F)F)c1)C(=O)c1[nH]c(=O)c2ccc(Cl)cc2c1-c1ccccc1 [Example 177, N-[3,5-Bis(trifluoromethyl)benzyl]-6-chloro-1,2-dihydro-N-methyl-1-oxo-4-phenyl-3-isoquinolinecarboxamide] |
| 6.96 | COc1ccccc1CCOCc1c(-c2ccccc2)c2cc(C)c(C)cc2c(=O)n1C [Example 207, 1,2-Dihydro-2,6,7-trimethyl-1-oxo-4-phenyl-3-isoquinolinemethyl 2-(2-methoxyphenyl)ethyl ether] |
| 7.47 | CN(Cc1cc(C(F)(F)F)cc(C(F)(F)F)c1)C(=O)[C@H]1[C@@H](c2ccccc2)c2ccccc2C(=O)N1C (relative stereo) [Example 279, 3,4-cis-N-[3,5-Bis(trifluoromethyl)benzyl]-1,2,3,4-tetrahydro-N-2-dimethyl-1-oxo-4-phenyl-3-isoquinolinecarboxamide] |
| 9.17 | Cc1nc2ccccc2c(-c2ccccc2)c1C(=O)N(C)Cc1cc(C(F)(F)F)cc(C(F)(F)F)c1 [Example 267, N-[3,5-Bis(trifluoromethyl)benzyl]-N,2-dimethyl-4-phenyl-3-quinolinecarboxamide] |
| 7.27 | COc1nc(C(=O)N(C)Cc2cc(C(F)(F)F)cc(C(F)(F)F)c2)c(-c2ccccc2)c2ccccc12 [Example 277, N-[3,5-Bis(trifluoromethyl)benzyl]-1-methoxy-N-methyl-4-phenyl-3-isoquinolinecarboxamide] |
| 8.92 | CN(Cc1cc(C(F)(F)F)cc(C(F)(F)F)c1)C(=O)c1c(-c2ccc(F)cc2)c2c(F)cccc2c(=O)n1C [Example 188, N-[3,5-Bis(trifluoromethyl)benzyl]-5-fluoro-4-(4-fluorophenyl)-N,2-dimethyl-1-oxo-3-isoquinolinecarboxamide] |
| 7.36 | Cc1cc(C)cc(CNC2CCCn3c2c(-c2ccccc2)c2cc(C)c(C)cc2c3=O)c1 (centres unmarked) [Example 233, 1-(3,5-Dimethylbenzylamino)-1,2,3,4-tetrahydro-8,9-dimethyl-6-oxo-11-phenyl-6H-benzo[b]quinolizine hydrochloride] |
| 7.80 | CN(Cc1cc(C(F)(F)F)cc(C(F)(F)F)c1)C(=O)c1cnc2ccc(Cl)cc2c1-c1ccccc1 [Example 264, N-[3,5-Bis(trifluoromethyl)benzyl]-6-chloro-N-methyl-4-phenyl-3-quinolinecarboxamide] |
| 7.10 | COc1ccccc1CNC1CCCn2c1c(-c1ccccc1)c1ccccc1c2=O (centres unmarked) [Example 239, 1,2,3,4-Tetrahydro-1-(2-methoxybenzylamino)-6-oxo-11-phenyl-6H-benzo[b]quinolizine] |
| 8.08 | Cc1cc2c(-c3ccccc3)c(C(=O)N(C)Cc3cc(C(F)(F)F)cc(C(F)(F)F)c3)n(C)c(=O)c2cc1C [Example 112, N-[3,5-Bis(trifluoromethyl)benzyl]-1,2-dihydro-N,2,6,7-tetramethyl-1-oxo-4-phenyl-3-isoquinolinecarboxamide] |
| 9.44 | Cc1ccccc1-c1c(C(=O)N(C)Cc2cc(C(F)(F)F)cc(C(F)(F)F)c2)c(=O)oc2ccccc12 [Example 254, N-[3,5-Bis(trifluoromethyl)benzyl]-N-methyl-4-(2-methylphenyl)-2-oxo-2H-1-benzopyran-3-carboxamide] |
| 7.09 | Cc1cccc(C)c1-c1c(C(=O)NCc2cc(C(F)(F)F)cc(C(F)(F)F)c2)n(C)c(=O)c2ccccc12 [Example 122, N-[3,5-Bis(trifluoromethyl)benzyl]-1,2-dihydro-2-methyl-4-(2,6-dimethylphenyl)-1-oxo-3-isoquinolinecarboxamide] |
| 7.70 | Cn1c(C(=O)NCc2ccc(C(F)(F)F)cc2)c(-c2ccccc2)c2ccccc2c1=O [Example 171, 1,2-Dihydro-2-methyl-1-oxo-4-phenyl-N-[4-(trifluoromethyl)benzyl]-3-isoquinolinecarboxamide] |
